Measurements reported in patent US12319672B2, “Alpha-D-galactopyranoside derivatives” (Idorsia Pharmaceuticals Ltd, priority 2019, dated 2025).

Experiments:
[1] = molecular target: human Gal-3 (hGal-3) (Homo sapiens (Human), UniProt P17931); test: Competitive binding assay: binding of biotinylated hGal-3 to microplate-adsorbed asialofetuin (ASF); conditions: Activity on hGal-3; mean values of several measurements
How it was run: (§1)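 Spectrophotometric readout (streptavidin-peroxidase, ABTS) of biotinylated galectin retained on ASF-coated wells. Biotinylated hGal-1 or hGal-3, 300-1000 ng/mL, co-incubated with test compound 3 h at 4° C, then washed. Mean IC50 from repeat runs.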

[2] = molecular target: human Gal-1 (hGal-1); test: Competitive binding assay: binding of biotinylated hGal-1 to microplate-adsorbed asialofetuin (ASF); conditions: Activities on hGal-1; mean values of several measurements
How it was run: as §1

Sequence of human Gal-1 (hGal-1) (P09382 2-135 limits assumed): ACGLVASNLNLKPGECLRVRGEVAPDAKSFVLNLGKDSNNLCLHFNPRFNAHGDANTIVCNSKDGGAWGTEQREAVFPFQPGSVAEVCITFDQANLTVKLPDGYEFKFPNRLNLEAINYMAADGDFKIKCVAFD
Sequence of human Gal-3 (hGal-3) (P17931 whole entry): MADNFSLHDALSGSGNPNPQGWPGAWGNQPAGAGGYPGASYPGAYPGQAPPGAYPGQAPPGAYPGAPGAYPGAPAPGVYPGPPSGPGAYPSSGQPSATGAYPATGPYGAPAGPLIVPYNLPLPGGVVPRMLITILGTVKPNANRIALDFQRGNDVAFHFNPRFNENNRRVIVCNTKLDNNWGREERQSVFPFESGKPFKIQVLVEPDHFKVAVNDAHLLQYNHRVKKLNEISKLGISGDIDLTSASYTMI

IC50 [1] [nM]	IC50 [2] [nM]	SMILES
140	13600	CC(=O)O[C@@H]1[C@@H](n2cc(-c3cc(F)c(F)c(F)c3)nn2)[C@@H](O)[C@@H](CO)O[C@@H]1Cc1cc(C2CCNCC2)on1 [Example 3.15, (2R,3R,4S,5R,6R)-5-hydroxy-6-(hydroxymethyl)-2-((5-(piperidin-4-yl)isoxazol-3-yl)methyl)-4-(4-(3,4,5-trifluorophenyl)-1H-1,2,3-triazol-1-yl)tetrahydro-2H-pyran-3-yl acetate]
220	5190	CO[C@@H]1[C@@H](n2cc(-c3cc(F)c(F)c(F)c3)nn2)[C@@H](O)[C@@H](CO)O[C@@H]1Cc1cc(C2CCNCC2)on1 [Example 3.16, (2R,3R,4S,5R,6R)-2-(hydroxymethyl)-5-methoxy-6-((5-(piperidin-4-yl)isoxazol-3-yl)methyl)-4-(4-(3,4,5-trifluorophenyl)-1H-1,2,3-triazol-1-yl)tetrahydro-2H-pyran-3-ol]
430	4720	CC(=O)N1CCC([C@H]2CC(C[C@H]3O[C@H](CO)[C@H](O)[C@H](n4cc(-c5cc(F)c(F)c(F)c5)nn4)[C@H]3O)=NO2)CC1 [Example 3.19, 1-(4-((R)-3-(((2R,3R,4R,5R,6R)-3,5-dihydroxy-6-(hydroxymethyl)-4-(4-(3,4,5-trifluorophenyl)-1H-1,2,3-triazol-1-yl)tetrahydro-2H-pyran-2-yl)methyl)-4,5-dihydroisoxazol-5-yl)piperidin-1-yl)ethan-1-one]
240	1850	CC(=O)N1CCC([C@@H]2CC(C[C@H]3O[C@H](CO)[C@H](O)[C@H](n4cc(-c5cc(F)c(F)c(F)c5)nn4)[C@H]3O)=NO2)CC1 [Example 3.20, 1-(4-((S)-3-(((2R,3R,4R,5R,6R)-3,5-dihydroxy-6-(hydroxymethyl)-4-(4-(3,4,5-trifluorophenyl)-1H-1,2,3-triazol-1-yl)tetrahydro-2H-pyran-2-yl)methyl)-4,5-dihydroisoxazol-5-yl)piperidin-1-yl)ethan-1-one]
46	590	CO[C@@H]1[C@@H](n2cc(-c3cc(F)c(F)c(F)c3)nn2)[C@@H](O)[C@@H](CO)O[C@@H]1Cc1cc(C2CCN(C(C)=O)CC2)on1 [Example 3.21, 1-(4-(3-(((2R,3R,4S,5R,6R)-5-hydroxy-6-(hydroxymethyl)-3-methoxy-4-(4-(3,4,5-trifluorophenyl)-1H-1,2,3-triazol-1-yl)tetrahydro-2H-pyran-2-yl)methyl)isoxazol-5-yl)piperidin-1-yl)ethan-1-one]
28	1870	CC(=O)O[C@@H]1[C@@H](n2cc(-c3cc(F)c(F)c(F)c3)nn2)[C@@H](O)[C@@H](CO)O[C@@H]1Cc1cc(C2CCN(C(C)=O)CC2)on1 [Example 3.22, (2R,3R,4S,5R,6R)-2-((5-(1-acetylpiperidin-4-yl)isoxazol-3-yl)methyl)-5-hydroxy-6-(hydroxymethyl)-4-(4-(3,4,5-trifluorophenyl)-1H-1,2,3-triazol-1-yl)tetrahydro-2H-pyran-3-yl acetate]
340	9190	CC(=O)O[C@@H]1[C@@H](n2cc(-c3cc(F)c(F)c(F)c3)nn2)[C@@H](O)[C@@H](CO)O[C@@H]1CC1=NO[C@@H](C2CCN(C(C)=O)CC2)C1 [Example 3.24, (2R,3R,4S,5R,6R)-2-(((R)-5-(1-acetylpiperidin-4-yl)-4,5-dihydroisoxazol-3-yl)methyl)-5-hydroxy-6-(hydroxymethyl)-4-(4-(3,4,5-trifluorophenyl)-1H-1,2,3-triazol-1-yl)tetrahydro-2H-pyran-3-yl acetate]
170	2470	CC(=O)O[C@@H]1[C@@H](n2cc(-c3cc(F)c(F)c(F)c3)nn2)[C@@H](O)[C@@H](CO)O[C@@H]1CC1=NO[C@H](C2CCN(C(C)=O)CC2)C1 [Example 3.25, (2R,3R,4S,5R,6R)-2-(((S)-5-(1-acetylpiperidin-4-yl)-4,5-dihydroisoxazol-3-yl)methyl)-5-hydroxy-6-(hydroxymethyl)-4-(4-(3,4,5-trifluorophenyl)-1H-1,2,3-triazol-1-yl)tetrahydro-2H-pyran-3-yl acetate]
68	930	CCOC(=O)N1CCC(c2cc(C[C@H]3O[C@H](CO)[C@H](O)[C@H](n4cc(-c5cc(F)c(F)c(F)c5)nn4)[C@H]3O)no2)CC1 [Example 3.26, ethyl 4-(3-(((2R,3R,4R,5R,6R)-3,5-dihydroxy-6-(hydroxymethyl)-4-(4-(3,4,5-trifluorophenyl)-1H-1,2,3-triazol-1-yl)tetrahydro-2H-pyran-2-yl)methyl)isoxazol-5-yl)piperidine-1-carboxylate]
32	870	CCNC(=O)N1CCC(c2cc(C[C@H]3O[C@H](CO)[C@H](O)[C@H](n4cc(-c5cc(F)c(F)c(F)c5)nn4)[C@H]3O)no2)CC1 [Example 3.27, 4-(3-(((2R,3R,4R,5R,6R)-3,5-dihydroxy-6-(hydroxymethyl)-4-(4-(3,4,5-trifluorophenyl)-1H-1,2,3-triazol-1-yl)tetrahydro-2H-pyran-2-yl)methyl)isoxazol-5-yl)-N-ethylpiperidine-1-carboxamide]
38	1230	CS(=O)(=O)N1CCC(c2cc(C[C@H]3O[C@H](CO)[C@H](O)[C@H](n4cc(-c5cc(F)c(F)c(F)c5)nn4)[C@H]3O)no2)CC1 [Example 3.28, (2R,3R,4R,5R,6R)-2-(hydroxymethyl)-6-((5-(1-(methylsulfonyl)piperidin-4-yl)isoxazol-3-yl)methyl)-4-(4-(3,4,5-trifluorophenyl)-1H-1,2,3-triazol-1-yl)tetrahydro-2H-pyran-3,5-diol]
270	15800	CN1CCC(c2cc(C[C@H]3O[C@H](CO)[C@H](O)[C@H](n4cc(-c5cc(F)c(F)c(F)c5)nn4)[C@H]3O)no2)CC1 [Example 3.29, (2R,3R,4R,5R,6R)-2-(hydroxymethyl)-6-((5-(1-methylpiperidin-4-yl)isoxazol-3-yl)methyl)-4-(4-(3,4,5-trifluorophenyl)-1H-1,2,3-triazol-1-yl)tetrahydro-2H-pyran-3,5-diol]
160	3620	CC(C)(C)C(=O)N1CCC(c2cc(C[C@H]3O[C@H](CO)[C@H](O)[C@H](n4cc(-c5cc(F)c(F)c(F)c5)nn4)[C@H]3O)no2)CC1 [Example 3.30, 1-(4-(3-(((2R,3R,4R,5R,6R)-3,5-dihydroxy-6-(hydroxymethyl)-4-(4-(3,4,5-trifluorophenyl)-1H-1,2,3-triazol-1-yl)tetrahydro-2H-pyran-2-yl)methyl)isoxazol-5-yl)piperidin-1-yl)-2,2-dimethylpropan-1-one]
73	850	CCOC(=O)N1CCC(c2cc(C[C@H]3O[C@H](CO)[C@H](O)[C@H](n4cc(-c5cc(F)c(F)c(F)c5)nn4)[C@H]3OC)no2)CC1 [Example 3.31, ethyl 4-(3-(((2R,3R,4S,5R,6R)-5-hydroxy-6-(hydroxymethyl)-3-methoxy-4-(4-(3,4,5-trifluorophenyl)-1H-1,2,3-triazol-1-yl)tetrahydro-2H-pyran-2-yl)methyl)isoxazol-5-yl)piperidine-1-carboxylate]
46	610	COC(=O)N1CCC(c2cc(C[C@H]3O[C@H](CO)[C@H](O)[C@H](n4cc(-c5cc(F)c(F)c(F)c5)nn4)[C@H]3OC)no2)CC1 [Example 3.32, methyl 4-(3-(((2R,3R,4S,5R,6R)-5-hydroxy-6-(hydroxymethyl)-3-methoxy-4-(4-(3,4,5-trifluorophenyl)-1H-1,2,3-triazol-1-yl)tetrahydro-2H-pyran-2-yl)methyl)isoxazol-5-yl)piperidine-1-carboxylate]
65	1080	CO[C@@H]1[C@@H](n2cc(-c3cc(F)c(F)c(F)c3)nn2)[C@@H](O)[C@@H](CO)O[C@@H]1Cc1cc(C2CCN(C(=O)C(C)C)CC2)on1 [Example 3.33, 1-(4-(3-(((2R,3R,4S,5R,6R)-5-hydroxy-6-(hydroxymethyl)-3-methoxy-4-(4-(3,4,5-trifluorophenyl)-1H-1,2,3-triazol-1-yl)tetrahydro-2H-pyran-2-yl)methyl)isoxazol-5-yl)piperidin-1-yl)-2-methylpropan-1-one]
120	1510	CO[C@@H]1[C@@H](n2cc(-c3cc(F)c(F)c(F)c3)nn2)[C@@H](O)[C@@H](CO)O[C@@H]1Cc1cc(C2CCN(C(=O)C(C)(C)C)CC2)on1 [Example 3.34, 1-(4-(3-(((2R,3R,4S,5R,6R)-5-hydroxy-6-(hydroxymethyl)-3-methoxy-4-(4-(3,4,5-trifluorophenyl)-1H-1,2,3-triazol-1-yl)tetrahydro-2H-pyran-2-yl)methyl)isoxazol-5-yl)piperidin-1-yl)-2,2-dimethylpropan-1-one]
48	930	CCCC(=O)N1CCC(c2cc(C[C@H]3O[C@H](CO)[C@H](O)[C@H](n4cc(-c5cc(F)c(F)c(F)c5)nn4)[C@H]3OC)no2)CC1 [Example 3.35, 1-(4-(3-(((2R,3R,4S,5R,6R)-5-hydroxy-6-(hydroxymethyl)-3-methoxy-4-(4-(3,4,5-trifluorophenyl)-1H-1,2,3-triazol-1-yl)tetrahydro-2H-pyran-2-yl)methyl)isoxazol-5-yl)piperidin-1-yl)butan-1-one]
97	1090	CCNC(=O)N1CCC(c2cc(C[C@H]3O[C@H](CO)[C@H](O)[C@H](n4cc(-c5cc(F)c(F)c(F)c5)nn4)[C@H]3OC)no2)CC1 [Example 3.37, N-ethyl-4-(3-(((2R,3R,4S,5R,6R)-5-hydroxy-6-(hydroxymethyl)-3-methoxy-4-(4-(3,4,5-trifluorophenyl)-1H-1,2,3-triazol-1-yl)tetrahydro-2H-pyran-2-yl)methyl)isoxazol-5-yl)piperidine-1-carboxamide]
